# Results as given in publication PMC4515429, “Anti-Biofilm and Immunomodulatory Activities of Peptides That Inhibit Biofilms Formed by Pathogens Isolated from Cystic Fibrosis Patients” (Antibiotics, 2014).
# Where “and” joins values, the source holds several entries; their conditions need not be identical. Equal values may be shown once. Where no end group is shown, it is not given here.
# Columns and labels:
# [1] = test system: B. cenocepacia CEP509 (IIIb); settings: polypropylene 96-well plate, BM2 glucose, 22 h, 37 °C, crystal violet, absorbance 595, at least two independent experiments
# Description: (§1) To assess the biofilm-forming ability of the different clinical isolates, dilutions (1/100) of overnight cultures were incubated in 96-well polypropylene plates using BM2 glucose medium, as previously described.
# (§2) Biofilm formation was initially analyzed using a static abiotic solid surface assay as described elsewhere. Dilutions (1/100) of overnight cultures were incubated in BM2 glucose medium (62 mM potassium phosphate buffer (pH 7), 7 mM (NH4)2SO4, 2 mM MgSO4, 10 μM FeSO4, 0.4% (wt/vol) glucose, 0.5% (wt/vol) Casamino Acids) in polypropylene microtiter plates (Fisher Scientific, Waltham, MA, USA) in the presence of the different peptides for 22 h at 37 °C. Planktonic cells were removed and biofilm cells adhering to the side of the tubes were stained with crystal violet, extracted into ethanol, and the optical density at 595 nm (OD595) measured using a microtiter plate reader (Bio-Tek Instruments Inc., Winooski, VT, USA). Peptides were added at time zero (prior to adding the diluted, overnight cultures) at various concentrations, and the decrease in biofilm formation was recorded at 22 h for P. aeruginosa, Burkholderia and Methicillin-resistant Staphylococcus aureus isolates.
# [2] = test system: P. aeruginosa 3195 (Classic); settings: polypropylene 96-well plate, BM2 glucose, 22 h, 37 °C, crystal violet, absorbance 595, at least two independent experiments
# Description: as §1, §2
# [3] = test system: P. aeruginosa 1172 (Classic); settings: polypropylene 96-well plate, BM2 glucose, 22 h, 37 °C, crystal violet, absorbance 595, at least two independent experiments
# Description: as §1, §2
# P. aeruginosa PA14 [4] = settings: polypropylene 96-well plate, BM2 glucose, 22 h, 37 °C, crystal violet, absorbance 595, at least two independent experiments
# Description: as §1, §2
# [5] = test system: P. aeruginosa 2639 (Mucoid); settings: polypropylene 96-well plate, BM2 glucose, 22 h, 37 °C, crystal violet, absorbance 595, at least two independent experiments
# Description: as §1, §2
# [6] = test system: P. aeruginosa 3330 (Classic); settings: polypropylene 96-well plate, BM2 glucose, 22 h, 37 °C, crystal violet, absorbance 595, at least two independent experiments
# Description: as §1, §2
# [7] = test system: P. aeruginosa 2955 (Dwarf); settings: polypropylene 96-well plate, BM2 glucose, 22 h, 37 °C, crystal violet, absorbance 595, at least two independent experiments
# Description: as §1, §2
# B. stabilis C6061 (IV) [8] = settings: polypropylene 96-well plate, BM2 glucose, 22 h, 37 °C, crystal violet, absorbance 595, at least two independent experiments
# Description: as §1, §2
# [9] = test system: B. cenocepacia 4813 (IIIa); settings: polypropylene 96-well plate, BM2 glucose, 22 h, 37 °C, crystal violet, absorbance 595, at least two independent experiments
# Description: as §1, §2
# [10] = test system: B. cenocepacia C5424 (IIIa); settings: polypropylene 96-well plate, BM2 glucose, 22 h, 37 °C, crystal violet, absorbance 595, at least two independent experiments
# Description: as §1, §2
# [11] = test system: B. ambifaria CEP0996 (VII); settings: polypropylene 96-well plate, BM2 glucose, 22 h, 37 °C, crystal violet, absorbance 595, at least two independent experiments
# Description: as §1, §2
# [12] = test system: P. aeruginosa 7633 (Entire); settings: polypropylene 96-well plate, BM2 glucose, 22 h, 37 °C, crystal violet, absorbance 595, at least two independent experiments
# Description: as §1, §2
# [13] = test system: P. aeruginosa 7632 (Classic); settings: polypropylene 96-well plate, BM2 glucose, 22 h, 37 °C, crystal violet, absorbance 595, at least two independent experiments
# Description: as §1, §2
# [14] = test system: B. multivorans D2661 (Genomovar II); settings: polypropylene 96-well plate, BM2 glucose, 22 h, 37 °C, crystal violet, absorbance 595, at least two independent experiments
# Description: as §1, §2
# [15] = test system: B. cenocepacia CEP0055 (IIIb); settings: polypropylene 96-well plate, BM2 glucose, 22 h, 37 °C, crystal violet, absorbance 595, at least two independent experiments
# Description: as §1, §2
# [16] = test system: P. aeruginosa 2631 (Classic); settings: polypropylene 96-well plate, BM2 glucose, 22 h, 37 °C, crystal violet, absorbance 595, at least two independent experiments
# Description: as §1, §2
# P. aeruginosa PA01 [17] = settings: polypropylene 96-well plate, BM2 glucose, 22 h, 37 °C, crystal violet, absorbance 595, at least two independent experiments
# Description: as §1, §2
# B. dolosa CEP0021 (VI) [18] = settings: polypropylene 96-well plate, BM2 glucose, 22 h, 37 °C, crystal violet, absorbance 595, at least two independent experiments
# Description: as §1, §2
# [19] = test system: B. cenocepacia CEP509 (IIIb); settings: planktonic cells; broth microdilution, BHI, 5 × 10^5 CFU/mL, 37 °C, 18 h; performed at least three times
# Description: (§3) In addition to the wild type lab isolates Pseudomonas aeruginosa strains PAO1 and PA14, a variety of cystic fibrosis clinical isolates of P. aeruginosa and Burkholderia cepacia complex strains were utilized (Table 1). Planktonic cells from each of the P. aeruginosa and B. cepacia strains were grown in BM2 glucose or cation-adjusted Mueller-Hinton. The minimal inhibitory concentration (MIC) for peptides in brain-heart infusion (BHI) was assessed by the broth microdilution method with minor modifications for cationic peptides. […] MIC assays were performed in sterile 96-well polypropylene microtiter plates. […] The plates were incubated at 37 °C for 18 h.
# [20] = test system: P. aeruginosa 4608 (Mucoid); settings: planktonic cells; broth microdilution, BHI, 5 × 10^5 CFU/mL, 37 °C, 18 h; performed at least three times
# Description: as §3
# [21] = test system: P. aeruginosa 3195 (Classic); settings: planktonic cells; broth microdilution, BHI, 5 × 10^5 CFU/mL, 37 °C, 18 h; performed at least three times
# Description: as §3
# [22] = test system: P. aeruginosa 1172 (Classic); settings: planktonic cells; broth microdilution, BHI, 5 × 10^5 CFU/mL, 37 °C, 18 h; performed at least three times
# Description: as §3
# [23] = test system: P. aeruginosa C4276 (Classic); settings: planktonic cells; broth microdilution, BHI, 5 × 10^5 CFU/mL, 37 °C, 18 h; performed at least three times
# Description: as §3
# P. aeruginosa PA14 [24] = settings: planktonic cells; broth microdilution, BHI, 5 × 10^5 CFU/mL, 37 °C, 18 h; performed at least three times
# Description: as §3
# [25] = test system: P. aeruginosa 2639 (Mucoid); settings: planktonic cells; broth microdilution, BHI, 5 × 10^5 CFU/mL, 37 °C, 18 h; performed at least three times
# Description: as §3
# [26] = test system: P. aeruginosa C2773 (Classic); settings: planktonic cells; broth microdilution, BHI, 5 × 10^5 CFU/mL, 37 °C, 18 h; performed at least three times
# Description: as §3
# [27] = test system: P. aeruginosa 3330 (Classic); settings: planktonic cells; broth microdilution, BHI, 5 × 10^5 CFU/mL, 37 °C, 18 h; performed at least three times
# Description: as §3
# [28] = test system: P. aeruginosa 2955 (Dwarf); settings: planktonic cells; broth microdilution, BHI, 5 × 10^5 CFU/mL, 37 °C, 18 h; performed at least three times
# Description: as §3
# B. stabilis C6061 (IV) [29] = settings: planktonic cells; broth microdilution, BHI, 5 × 10^5 CFU/mL, 37 °C, 18 h; performed at least three times
# Description: as §3
# [30] = test system: B. cenocepacia 4813 (IIIa); settings: planktonic cells; broth microdilution, BHI, 5 × 10^5 CFU/mL, 37 °C, 18 h; performed at least three times
# Description: as §3
# [31] = test system: P. aeruginosa 4020 (Classic); settings: planktonic cells; broth microdilution, BHI, 5 × 10^5 CFU/mL, 37 °C, 18 h; performed at least three times
# Description: as §3
# [32] = test system: B. cenocepacia C5424 (IIIa); settings: planktonic cells; broth microdilution, BHI, 5 × 10^5 CFU/mL, 37 °C, 18 h; performed at least three times
# Description: as §3
# [33] = test system: B. ambifaria CEP0996 (VII); settings: planktonic cells; broth microdilution, BHI, 5 × 10^5 CFU/mL, 37 °C, 18 h; performed at least three times
# Description: as §3
# [34] = test system: P. aeruginosa 7633 (Entire); settings: planktonic cells; broth microdilution, BHI, 5 × 10^5 CFU/mL, 37 °C, 18 h; performed at least three times
# Description: as §3
# [35] = test system: P. aeruginosa 7632 (Classic); settings: planktonic cells; broth microdilution, BHI, 5 × 10^5 CFU/mL, 37 °C, 18 h; performed at least three times
# Description: as §3
# [36] = test system: B. multivorans D2661 (Genomovar II); settings: planktonic cells; broth microdilution, BHI, 5 × 10^5 CFU/mL, 37 °C, 18 h; performed at least three times
# Description: as §3
# [37] = test system: P. aeruginosa C4278 (Mucoid); settings: planktonic cells; broth microdilution, BHI, 5 × 10^5 CFU/mL, 37 °C, 18 h; performed at least three times
# Description: as §3
# [38] = test system: B. cenocepacia CEP0055 (IIIb); settings: planktonic cells; broth microdilution, BHI, 5 × 10^5 CFU/mL, 37 °C, 18 h; performed at least three times
# Description: as §3
# [39] = test system: P. aeruginosa 2631 (Classic); settings: planktonic cells; broth microdilution, BHI, 5 × 10^5 CFU/mL, 37 °C, 18 h; performed at least three times
# Description: as §3
# P. aeruginosa PA01 [40] = settings: planktonic cells; broth microdilution, BHI, 5 × 10^5 CFU/mL, 37 °C, 18 h; performed at least three times
# Description: as §3
# B. dolosa CEP0021 (VI) [41] = settings: planktonic cells; broth microdilution, BHI, 5 × 10^5 CFU/mL, 37 °C, 18 h; performed at least three times
# Description: as §3
substance,measurement,setting,value
VRLIVAVRIWRR-NH2 [Peptide 1018],Inhibition by 10 µg/mL 1018 (biofilm formation),[1],61%
same,Inhibition by 10 µg/mL 1018 (biofilm formation),[2],37%
same,Inhibition by 10 µg/mL 1018 (biofilm formation),[3],37%
same,Inhibition by 10 µg/mL 1018 (biofilm formation),P. aeruginosa PA14 [4],~ 50% and 49%
same,Inhibition by 10 µg/mL 1018 (biofilm formation),[5],44%
same,Inhibition by 10 µg/mL 1018 (biofilm formation),[6],33%
same,Inhibition by 10 µg/mL 1018 (biofilm formation),[7],41%
same,Inhibition by 10 µg/mL 1018 (biofilm formation),B. stabilis C6061 (IV) [8],53%
same,Inhibition by 10 µg/mL 1018 (biofilm formation),[9],52%
same,Inhibition by 10 µg/mL 1018 (biofilm formation),[10],59%
same,Inhibition by 10 µg/mL 1018 (biofilm formation),[11],62%
same,Inhibition by 10 µg/mL 1018 (biofilm formation),[12],49%
same,Inhibition by 10 µg/mL 1018 (biofilm formation),[13],19%
same,Inhibition by 10 µg/mL 1018 (biofilm formation),[14],75%
same,Inhibition by 10 µg/mL 1018 (biofilm formation),[15],58%
same,Inhibition by 10 µg/mL 1018 (biofilm formation),[16],44%
same,Inhibition by 10 µg/mL 1018 (biofilm formation),P. aeruginosa PA01 [17],~ 50% and 51%
same,Inhibition by 10 µg/mL 1018 (biofilm formation),B. dolosa CEP0021 (VI) [18],55%
same,MIC,[19],>256 µg/mL
same,MIC,[20],32 µg/mL
same,MIC,[21],16 µg/mL
same,MIC,[22],16 µg/mL
same,MIC,[23],32 µg/mL
same,MIC,P. aeruginosa PA14 [24],16 µg/mL
same,MIC,[25],32 µg/mL
same,MIC,[26],16 µg/mL
same,MIC,[27],16 µg/mL
same,MIC,[28],50 µg/mL
same,MIC,B. stabilis C6061 (IV) [29],64 µg/mL
same,MIC,[30],>256 µg/mL
same,MIC,[31],16 µg/mL
same,MIC,[32],128 µg/mL
same,MIC,[33],64 µg/mL
same,MIC,[34],16 µg/mL
same,MIC,[35],16 µg/mL
same,MIC,[36],>512 µg/mL
same,MIC,[37],16 µg/mL
same,MIC,[38],128 µg/mL
same,MIC,[39],32 µg/mL
same,MIC,P. aeruginosa PA01 [40],16 µg/mL
same,MIC,B. dolosa CEP0021 (VI) [41],>256 µg/mL
